Publication PMC5161551 (Nature chemical biology, 2016)

Legend:
[1] = test system: complement component C3, lactoferrin, and aquaporin 5; assay: Uterine expression of E2-regulated genes; assay type: in vivo, mouse; conditions: ovariectomized mice, 4 days
ERα = target: T1, ERα (Mus musculus, UniProt P19785); assay: ERα+ cells in mouse uterus; assay type: in vivo; conditions: mouse uterine tissue after the uterotrophic assay
T1 sequence (P19785 1-599): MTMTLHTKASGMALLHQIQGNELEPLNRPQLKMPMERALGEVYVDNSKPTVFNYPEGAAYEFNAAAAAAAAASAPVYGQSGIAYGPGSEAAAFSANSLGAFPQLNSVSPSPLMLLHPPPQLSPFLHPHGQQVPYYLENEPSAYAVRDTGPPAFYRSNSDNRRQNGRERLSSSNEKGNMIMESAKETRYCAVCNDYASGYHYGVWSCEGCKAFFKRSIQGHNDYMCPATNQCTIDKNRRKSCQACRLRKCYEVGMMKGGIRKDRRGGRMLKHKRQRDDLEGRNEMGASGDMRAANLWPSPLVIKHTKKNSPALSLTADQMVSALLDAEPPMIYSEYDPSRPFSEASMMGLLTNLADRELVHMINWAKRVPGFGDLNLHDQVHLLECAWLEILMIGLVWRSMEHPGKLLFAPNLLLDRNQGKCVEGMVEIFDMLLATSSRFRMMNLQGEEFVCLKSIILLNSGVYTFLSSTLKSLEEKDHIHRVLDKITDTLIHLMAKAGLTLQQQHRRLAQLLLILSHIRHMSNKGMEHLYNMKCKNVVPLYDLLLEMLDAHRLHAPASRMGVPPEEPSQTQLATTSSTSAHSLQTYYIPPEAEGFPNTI

[2] = test system: uterus of ovariectomized mice; assay: Mouse uterotrophic assay; assay type: in vivo; conditions: 240 μg in combination with E2 (10 ng), sc, 4 days
IL-6 = assay: TNFα-induced IL-6 secretion in MCF-7 cells; assay type: cell-based, human; conditions: MCF-7, 10 ng/ml TNFα, ligand 10 μM, 24 hr

ERα expression in uterus (ERα+ cells) (ERα): robustly inhibited ERα expression
SMILES: C[C@]12CC[C@@H]3c4ccc(O)cc4C[C@@H](CCCCCCCCC[S+]([O-])CCCC(F)(F)C(F)(F)F)[C@H]3[C@@H]1CC[C@@H]2O (some centres unmarked) [fulvestrant]
effect on E2-stimulated expression of genes in uterus ([1]; 240 μg in combination with E2 (10 ng)): markedly reduced the E2-stimulated expression levels of these genes
expression of E2-induced genes in uterus (compound alone) ([1]; 240 μg): failed to increase the expression of E2-induced genes
effect on E2-stimulated uterine growth [2]: significantly reduced the E2-stimulated uterine growth
inhibition of TNFα-induced IL-6 secretion (IL-6): did not inhibit IL-6 secretion
